# Laboratory results as given in patent US20080021024A1, “Metalloprotease inhibitors” (Alantos Pharmaceuticals Holding, Inc., priority 2006, published 2008).
# Target: T1, catalytic domain of MMP-13 enzyme (Homo sapiens, UniProt P45452)
# T1 construct: 10 μL of a 50 nM stock solution of catalytic domain of MMP-13 enzyme (produced by Alantos) is added; made in house
# Assay: Assay for determining MMP-13 inhibition (fluorescent substrate)
# Type: biochemical
# Details: Table 1, Summary of MMP-13 Activity for Compounds of Formula I
# Method: The MMP-13 inhibiting activity of the MMP-13 inhibiting compounds of the present invention may be measured using any suitable assay known in the art. A standard in vitro assay for MMP-13 inhibiting activity is described in Example 3000.
# The typical assay for MMP-13 activity is carried out in assay buffer comprised of 50 mM Tris, pH 7.5, 150 mM NaCl, 5 mM CaCl2 and 0.05% Brij-35. Different concentrations of tested compounds are prepared in assay buffer in 50 μL aliquots. 10 μL of a 50 nM stock solution of catalytic domain of MMP-13 enzyme (produced by Alantos) is added to the compound solution. The mixture of enzyme and compound in assay buffer is thoroughly mixed and incubated for 10 min at room temperature. Upon the completion of incubation, the assay is started by addition of 40 μL of a 12.5 μM stock solution of MMP-13 fluorescent substrate (Calbiochem, Cat. No. 444235). The time-dependent increase in fluorescence is measured at the 320 nm excitation and 390 nm emission by automatic plate multireader. The IC50 values are calculated from the initial reaction rates.
row,SMILES,IC50
1,Cc1cc(CNC(=O)c2cc(NS(=O)(=O)Cc3ccc(-c4nn[nH]n4)cc3)ncn2)ccc1F,< 1000 nM
2,O=C(NCc1ccc(-c2nnn[nH]2)cc1)c1cc(NS(=O)(=O)Cc2ccccc2)ncn1,> 5 nM
3,CS(=O)(=O)c1ccc(CC(=O)Nc2cc(C(=O)NCc3ccc(-c4nnn[nH]4)cc3)ncn2)cc1,> 5 nM
4,N#Cc1ccc(CNC(=O)c2cc(NC(=O)Cc3ccc4c(c3)OCO4)ncn2)cc1,< 1000 nM

# Further lines, results first:
row,IC50,SMILES
1,> 5 nM,CC(C(=O)Nc1cc(C(=O)NCc2ccc(F)cc2)ncn1)c1ccc(-c2nnn[nH]2)cc1 (centres unmarked)
2,< 1000 nM,N#Cc1ccc(CC(=O)Nc2cc(C(=O)NCc3ccc(F)cc3)ncn2)cc1
3,< 1000 nM,CC(C)(C(=O)Nc1cc(C(=O)NCc2ccc(F)cc2)ncn1)c1ccc(-c2nnn[nH]2)cc1
4,< 1000 nM,O=C(Cc1ccc2c(c1)CCO2)Nc1cc(C(=O)NCc2ccc(-c3nnn[nH]3)cc2)ncn1
